From patent US20060281728A1, “3-Substituted beta-lactamyl vasopressin v1a antagonists” (priority 2003, published 2006)

Target: human V1a receptor (Homo sapiens, UniProt P37288)
Assay: Human vasopressin V1a receptor binding assay
Conditions: competitive binding against 1 nM 3H-AVP, hV1a cell line (CHO cells), 45 minutes at 37° C.
Method: A cell line expressing the human V1a receptor in CHO cells (henceforth referred to as the hV1a cell line) was obtained from Dr. Michael Brownstein, NIMH, Bethesda, Md., USA. The hV1a cDNA sequence is described by Thibonnier et al., Journal of Biological Chemistry, 269:3304-3310 (1994), and the expression method was the same as described by Morel et al. (1992). The hV1a cell line was grown in alpha-MEM with 10% fetal bovine serum and 250 ug/ml G418 (Gibco, Grand Island, N.Y., USA). For competitive binding assay, hV1a cells were plated into 6-well culture plate at 1:10 dilution from a confluency flask, and maintained in culture for at least two days. Culture medium was then removed, cells were washed with 2 ml binding buffer (25 mM Hepes, 0.25% BSA, 1×DMEM, PH=7.0). To each well, 990 μl binding buffer containing 1 nM 3H-AVP was added, and followed by 10 μl series diluted Example compounds dissolved in DMSO. All incubations were in triplicate, and dose-inhibition curves consisted of total binding (DMSO) and 5 concentrations (0.1, 1.0, 10, 100, and 1000 nM) of test agents encompassing the IC50. 100 nM cold AVP (Sigma) was used to assess non-specific binding. […] Samples were counted in a liquid scintillation counter (Beckman LS3801). IC50 values were calculated by Prism Curve fitting software.

Sequence of human V1a receptor (P37288 whole entry): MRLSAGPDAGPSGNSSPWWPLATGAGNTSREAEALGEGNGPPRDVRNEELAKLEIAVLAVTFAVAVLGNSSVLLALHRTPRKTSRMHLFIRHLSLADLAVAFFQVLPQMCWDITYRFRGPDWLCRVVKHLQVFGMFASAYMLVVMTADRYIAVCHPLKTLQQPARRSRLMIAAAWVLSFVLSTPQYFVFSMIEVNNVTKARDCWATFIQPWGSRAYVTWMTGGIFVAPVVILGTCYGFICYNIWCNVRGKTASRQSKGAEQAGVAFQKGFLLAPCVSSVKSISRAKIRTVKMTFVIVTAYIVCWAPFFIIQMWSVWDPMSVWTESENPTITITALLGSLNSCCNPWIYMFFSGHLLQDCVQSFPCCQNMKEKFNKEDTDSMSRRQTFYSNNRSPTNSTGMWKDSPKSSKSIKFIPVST

For C[C@@]1(N2C(=O)OC[C@@H]2c2ccccc2)C(=O)N([C@H](CC(=O)N2CCC(N3CCCCC3)CC2)C(=O)NCc2cccc(C(F)(F)F)c2)[C@@H]1/C=C/c1ccccc1 [Example 33, 4-(Piperidin-1-yl)-piperidin-1-yl 3(R)-[3(S)-(4(S)-phenyloxazolidin-2-on-3-yl)-3-methyl-4(R)-(styr-2-yl)azetidin-2-on-1-yl]-3-[(3-trifluoromethyl)phenylmethylaminocarbonyl]propanoic acid], which IC50 is on record?
The IC50 was 5 nM.
